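The compound was tested at five concentrations on cells cultured in 96-well plates, with a 48-hour exposure period. GI50 marks 50% less growth. TGI: concentration producing complete growth inhibition.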
Key:
Test in all cases: NCI-60 cell line screen, 48 h
786-0 renal = tested on: 786-0 renal
A498 renal = tested on: A498 renal
A549 NSCLC = tested on: A549 NSCLC
ACHN renal = tested on: ACHN renal
BT-549 breast = tested on: BT-549 breast
CAKI-1 renal = tested on: CAKI-1 renal
CCRF-CEM leukemia = tested on: CCRF-CEM leukemia
COLO 205 colon = tested on: COLO 205 colon
DU-145 prostate = tested on: DU-145 prostate
EKVX NSCLC = tested on: EKVX NSCLC
HCC-2998 colon = tested on: HCC-2998 colon
HCT-116 colon = tested on: HCT-116 colon
HCT-15 colon = tested on: HCT-15 colon
HL-60(TB) leukemia = tested on: HL-60(TB) leukemia
HOP-62 NSCLC = tested on: HOP-62 NSCLC
HOP-92 NSCLC = tested on: HOP-92 NSCLC
HS 578T breast = tested on: HS 578T breast
HT29 colon = tested on: HT29 colon
IGROV1 ovarian = tested on: IGROV1 ovarian
K-562 leukemia = tested on: K-562 leukemia
KM12 colon = tested on: KM12 colon
LOX IMVI melanoma = tested on: LOX IMVI melanoma
MALME-3M melanoma = tested on: MALME-3M melanoma
MCF7 breast = tested on: MCF7 breast
MDA-MB-231 breast = tested on: MDA-MB-231 breast
MDA-MB-435 = tested on: MDA-MB-435
MOLT-4 leukemia = tested on: MOLT-4 leukemia
NCI-H226 lung = tested on: NCI-H226 lung
NCI-H23 lung = tested on: NCI-H23 lung
NCI-H460 lung = tested on: NCI-H460 lung
NCI-H522 lung = tested on: NCI-H522 lung
NCI/ADR-RES ovarian = tested on: NCI/ADR-RES ovarian
OVCAR-3 ovarian = tested on: OVCAR-3 ovarian
OVCAR-4 ovarian = tested on: OVCAR-4 ovarian
OVCAR-5 ovarian = tested on: OVCAR-5 ovarian
OVCAR-8 ovarian = tested on: OVCAR-8 ovarian
PC-3 prostate = tested on: PC-3 prostate
RPMI-8226 leukemia = tested on: RPMI-8226 leukemia
RXF 393 renal = tested on: RXF 393 renal
SF-268 CNS = tested on: SF-268 CNS
SF-295 CNS = tested on: SF-295 CNS
SF-539 CNS = tested on: SF-539 CNS
SK-MEL-2 melanoma = tested on: SK-MEL-2 melanoma
SK-MEL-28 melanoma = tested on: SK-MEL-28 melanoma
SK-MEL-5 melanoma = tested on: SK-MEL-5 melanoma
SK-OV-3 ovarian = tested on: SK-OV-3 ovarian
SN12C renal = tested on: SN12C renal
SNB-19 CNS = tested on: SNB-19 CNS
SNB-75 CNS = tested on: SNB-75 CNS
SR leukemia = tested on: SR leukemia
SW-620 colon = tested on: SW-620 colon
T-47D breast = tested on: T-47D breast
TK-10 renal = tested on: TK-10 renal
U251 CNS = tested on: U251 CNS
UACC-257 melanoma = tested on: UACC-257 melanoma
UACC-62 melanoma = tested on: UACC-62 melanoma
UO-31 renal = tested on: UO-31 renal

CS(=O)(=O)c1ccc(Oc2cc(F)cc(C#N)c2)c2c1[C@H](O)[C@H](F)[C@H]2F
GI50 (786-0 renal): > 100 µM | TGI (786-0 renal): > 100 µM | GI50 (A498 renal): > 100 µM | TGI (A498 renal): > 100 µM | GI50 (A549 NSCLC): > 100 µM | TGI (A549 NSCLC): > 100 µM | GI50 (ACHN renal): > 100 µM | TGI (ACHN renal): > 100 µM | GI50 (BT-549 breast): > 100 µM | TGI (BT-549 breast): > 100 µM | GI50 (CAKI-1 renal): > 100 µM | TGI (CAKI-1 renal): > 100 µM | GI50 (CCRF-CEM leukemia): > 100 µM | TGI (CCRF-CEM leukemia): > 100 µM | GI50 (COLO 205 colon): > 100 µM | TGI (COLO 205 colon): > 100 µM | GI50 (DU-145 prostate): > 100 µM | TGI (DU-145 prostate): > 100 µM | GI50 (EKVX NSCLC): > 100 µM | TGI (EKVX NSCLC): > 100 µM | GI50 (HCC-2998 colon): > 100 µM | TGI (HCC-2998 colon): > 100 µM | GI50 (HCT-116 colon): > 100 µM | TGI (HCT-116 colon): > 100 µM | GI50 (HCT-15 colon): > 100 µM | TGI (HCT-15 colon): > 100 µM | GI50 (HL-60(TB) leukemia): > 100 µM | TGI (HL-60(TB) leukemia): > 100 µM | GI50 (HOP-62 NSCLC): > 100 µM | TGI (HOP-62 NSCLC): > 100 µM | GI50 (HOP-92 NSCLC): > 100 µM | TGI (HOP-92 NSCLC): > 100 µM | GI50 (HS 578T breast): > 100 µM | TGI (HS 578T breast): > 100 µM | GI50 (HT29 colon): > 100 µM | TGI (HT29 colon): > 100 µM | GI50 (IGROV1 ovarian): > 100 µM | TGI (IGROV1 ovarian): > 100 µM | GI50 (K-562 leukemia): > 100 µM | TGI (K-562 leukemia): > 100 µM | GI50 (KM12 colon): > 100 µM | TGI (KM12 colon): > 100 µM | GI50 (LOX IMVI melanoma): > 100 µM | TGI (LOX IMVI melanoma): > 100 µM | GI50 (MALME-3M melanoma): > 100 µM | TGI (MALME-3M melanoma): > 100 µM | GI50 (MCF7 breast): > 100 µM | TGI (MCF7 breast): > 100 µM | GI50 (MDA-MB-231 breast): > 100 µM | TGI (MDA-MB-231 breast): > 100 µM | GI50 (MDA-MB-435): > 100 µM | TGI (MDA-MB-435): > 100 µM | GI50 (MOLT-4 leukemia): > 100 µM | TGI (MOLT-4 leukemia): > 100 µM | GI50 (NCI-H226 lung): > 100 µM | TGI (NCI-H226 lung): > 100 µM | GI50 (NCI-H23 lung): > 100 µM | TGI (NCI-H23 lung): > 100 µM | GI50 (NCI-H460 lung): > 100 µM | TGI (NCI-H460 lung): > 100 µM | GI50 (NCI-H522 lung): > 100 µM | TGI (NCI-H522 lung): > 100 µM | GI50 (NCI/ADR-RES ovarian): > 100 µM | TGI (NCI/ADR-RES ovarian): > 100 µM | GI50 (OVCAR-3 ovarian): > 100 µM | TGI (OVCAR-3 ovarian): > 100 µM | GI50 (OVCAR-4 ovarian): > 100 µM | TGI (OVCAR-4 ovarian): > 100 µM | GI50 (OVCAR-5 ovarian): > 100 µM | TGI (OVCAR-5 ovarian): > 100 µM | GI50 (OVCAR-8 ovarian): > 100 µM | TGI (OVCAR-8 ovarian): > 100 µM | GI50 (PC-3 prostate): > 100 µM | TGI (PC-3 prostate): > 100 µM | GI50 (RPMI-8226 leukemia): > 100 µM | TGI (RPMI-8226 leukemia): > 100 µM | GI50 (RXF 393 renal): 2.53 µM | TGI (RXF 393 renal): > 100 µM | GI50 (SF-268 CNS): > 100 µM | TGI (SF-268 CNS): > 100 µM | GI50 (SF-295 CNS): > 100 µM | TGI (SF-295 CNS): > 100 µM | GI50 (SF-539 CNS): > 100 µM | TGI (SF-539 CNS): > 100 µM | GI50 (SK-MEL-2 melanoma): > 100 µM | TGI (SK-MEL-2 melanoma): > 100 µM | GI50 (SK-MEL-28 melanoma): > 100 µM | TGI (SK-MEL-28 melanoma): > 100 µM | GI50 (SK-MEL-5 melanoma): > 100 µM | TGI (SK-MEL-5 melanoma): > 100 µM | GI50 (SK-OV-3 ovarian): > 100 µM | TGI (SK-OV-3 ovarian): > 100 µM | GI50 (SN12C renal): > 100 µM | TGI (SN12C renal): > 100 µM | GI50 (SNB-19 CNS): > 100 µM | TGI (SNB-19 CNS): > 100 µM | GI50 (SNB-75 CNS): > 100 µM | TGI (SNB-75 CNS): > 100 µM | GI50 (SR leukemia): > 100 µM | TGI (SR leukemia): > 100 µM | GI50 (SW-620 colon): > 100 µM | TGI (SW-620 colon): > 100 µM | GI50 (T-47D breast): > 100 µM | TGI (T-47D breast): > 100 µM | GI50 (TK-10 renal): > 100 µM | TGI (TK-10 renal): > 100 µM | GI50 (U251 CNS): > 100 µM | TGI (U251 CNS): > 100 µM | GI50 (UACC-257 melanoma): > 100 µM | TGI (UACC-257 melanoma): > 100 µM | GI50 (UACC-62 melanoma): > 100 µM | TGI (UACC-62 melanoma): > 100 µM | GI50 (UO-31 renal): > 100 µM | TGI (UO-31 renal): > 100 µM

Reference: PubChem BioAssay (NCI)
